Laboratory results taken from ChEMBL document CHEMBL1149545, “Thyroid receptor ligands. Part 8: Thyromimetics derived from N-acylated-alpha-amino acid derivatives displaying modulated pharmacological selectivity compared with KB-141” (Bioorg Med Chem Lett, 2007).

Columns and labels:
Rattus norvegicus [1] = assay: Increase in heart rate in po dosed cholesterol-fed rat; type: functional
cells [2] = conditions: Homo sapiens, CHO-K1
Description: (§1) Activity against TRAFbeta expressed in CHOK1 cells by alkaline phosphatse reporter gene assay

Rattus norvegicus [3] = assay: Decrease in cholesterol in po dosed cholesterol-fed rat; type: functional
cells [4] = conditions: Homo sapiens, CHO-K1; remark: listed apart in the source
Description: (§2) Activity against TRAF-alpha-1 expressed in CHOK1 cells by alkaline phosphatase reporter gene assay

Rattus norvegicus [5] = species: Rattus norvegicus; assay: Ratio of ED15 for heart rate in cholesterol-fed rat to ED50 for cholesterol level in cholesterol-fed rat; type: functional
CHO-K1 [6] = conditions: Homo sapiens
Description: as §1

CHO-K1 [7] = conditions: Homo sapiens; remark: listed apart in the source
Description: as §2

[8] = biological target: T1, Thyroid hormone receptor beta (Homo sapiens, UniProt P10828); assay: biochemical
T1 sequence (P10828 whole entry): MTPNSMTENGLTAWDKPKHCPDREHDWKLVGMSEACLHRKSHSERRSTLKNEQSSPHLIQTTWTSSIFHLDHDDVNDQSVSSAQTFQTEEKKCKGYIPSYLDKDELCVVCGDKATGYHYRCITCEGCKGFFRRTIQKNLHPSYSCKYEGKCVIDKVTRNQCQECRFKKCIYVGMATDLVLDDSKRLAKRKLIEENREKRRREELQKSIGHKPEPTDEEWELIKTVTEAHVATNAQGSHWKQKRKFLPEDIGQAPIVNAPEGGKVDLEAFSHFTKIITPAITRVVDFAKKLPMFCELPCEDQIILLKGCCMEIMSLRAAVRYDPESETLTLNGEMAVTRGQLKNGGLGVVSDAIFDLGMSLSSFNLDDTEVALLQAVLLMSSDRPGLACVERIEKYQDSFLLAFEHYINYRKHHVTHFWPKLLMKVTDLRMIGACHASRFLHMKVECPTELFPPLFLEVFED
Description: Binding affinity at human thyroid hormone receptor beta-1 expressed in CHOK1 cells

Rattus norvegicus [9] = species: Rattus norvegicus; assay: Ratio of ED30 for TSH in cholesterol-fed rat to ED50 for cholesterol level in cholesterol-fed rat; type: functional
Rattus norvegicus [10] = assay: Decrease in TSH in po dosed cholesterol-fed rat; type: functional
[11] = biological target: T2, Thyroid hormone receptor alpha (Homo sapiens, UniProt P10827); assay: biochemical
T2 sequence (P10827 whole entry): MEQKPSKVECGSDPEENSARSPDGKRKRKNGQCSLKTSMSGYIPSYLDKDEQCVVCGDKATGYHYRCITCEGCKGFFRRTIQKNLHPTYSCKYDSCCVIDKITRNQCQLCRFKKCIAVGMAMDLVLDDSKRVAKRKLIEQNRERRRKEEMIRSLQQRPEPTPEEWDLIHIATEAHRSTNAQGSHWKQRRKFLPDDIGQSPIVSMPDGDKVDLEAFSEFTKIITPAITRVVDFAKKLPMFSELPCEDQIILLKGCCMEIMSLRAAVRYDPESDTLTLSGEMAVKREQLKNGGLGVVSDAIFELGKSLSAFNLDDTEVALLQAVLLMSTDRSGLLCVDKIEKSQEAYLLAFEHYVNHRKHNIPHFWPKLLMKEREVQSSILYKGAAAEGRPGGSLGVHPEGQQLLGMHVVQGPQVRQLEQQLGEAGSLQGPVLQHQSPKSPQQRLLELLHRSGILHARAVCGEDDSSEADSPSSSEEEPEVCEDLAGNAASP
Description: Binding affinity at human thyroid hormone receptor alpha 1 expressed in CHOK1 cells

Homo sapiens = species: Homo sapiens; assay: Selectivity ratio of IC50 for thyroid hormone receptor alpha-1 to IC50 for thyroid hormone receptor beta-1

| EC50 (cells [2]) | EC50 (cells [4]) | IC50 [8] | IC50 [11] | Ratio IC50 (Homo sapiens) | SMILES | ED15 (Rattus norvegicus [1]) | ED50 (Rattus norvegicus [3]) | Ratio (Rattus norvegicus [5]) | Activity (CHO-K1 [6]) | Activity (CHO-K1 [7]) | Ratio (Rattus norvegicus [9]) | ED30 (Rattus norvegicus [10]) |
| --- | --- | --- | --- | --- | --- | --- | --- | --- | --- | --- | --- | --- |
| 0.77 nM | 1.4 nM | 0.27 nM | 4.3 nM | 9.4 | CC(C)c1cc(Oc2c(Br)cc(CC(=O)N[C@H](C(=O)O)C(C)C)cc2Br)ccc1O | 1580 nmol/kg/day | 82 nmol/kg/day | 19 | 92% | 78% | 3 | 242 nmol/kg/day |
| 42 nM | 103 nM | 2.7 nM | 26 nM | 5.9 | CC(C)c1cc(Oc2c(Br)cc(CC(=O)NCC(=O)O)cc2Br)ccc1O | – | – | – | 85% | 75% | – | – |
| – | – | – | – | – | CC(C)c1cc(Oc2c(Cl)cc(CC(=O)O)cc2Cl)ccc1O | 2900 nmol/kg/day | 72 nmol/kg/day | – | – | – | – | 32 nmol/kg/day |
| 11 nM | 17 nM | 12 nM | 88 nM | 4.3 | CC(C)c1cc(Oc2c(Br)cc(CC(=O)N[C@H](C(=O)O)C(C)C)cc2Br)cc(F)c1O | – | – | – | 88% | 78% | – | – |
| 2.6 nM | 7.2 nM | 1.3 nM | 10 nM | 4.5 | CC(C)c1cc(Oc2c(Br)cc(CC(=O)N[C@@H](C)C(=O)O)cc2Br)ccc1O | – | – | – | 92% | 81% | – | – |
| – | – | – | – | – | N[C@@H](Cc1cc(I)c(Oc2ccc(O)c(I)c2)c(I)c1)C(=O)O [LIOTHYRONINE] | 31 nmol/kg/day | 21 nmol/kg/day | – | – | – | – | 6.7 nmol/kg/day |
| 7.6 nM | 15 nM | 5.9 nM | 83 nM | 8.3 | CC(C)c1cc(Oc2c(Br)cc(CC(=O)N[C@H](C)C(=O)O)cc2Br)ccc1O | – | – | – | 100% | 83% | – | – |
| 1300 nM | 1500 nM | 290 nM | 460 nM | 0.9 | CC(C)c1cc(Oc2c(Br)cc(CC(=O)N[C@@H](CC(=O)O)C(=O)O)cc2Br)ccc1O | – | – | – | 84% | 72% | – | – |
| 38 nM | 66 nM | 26 nM | 168 nM | 3.8 | CC(C)c1cc(Oc2c(Br)cc(CC(=O)N[C@H](CC(=O)O)C(=O)O)cc2Br)ccc1O | – | – | – | 88% | 74% | – | – |
| 1.2 nM | 2.3 nM | 0.71 nM | 9.8 nM | 8.2 | CC(C)c1cc(Oc2c(Br)cc(CC(=O)N[C@@H](C(=O)O)C(C)C)cc2Br)ccc1O | – | – | – | 100% | 88% | – | – |
| 1100 nM | 170 nM | 2600 nM | 1500 nM | 0.34 | Cc1cc(Oc2c(Br)cc(CC(=O)N[C@H](C(=O)O)C(C)C)cc2Br)cc(C(C)C)c1O | – | – | – | 27% | 13% | – | – |
| 210 nM | 65 nM | 1400 nM | 670 nM | 0.29 | CC(C)c1cc(Oc2c(Br)cc(CC(=O)N[C@H](C(=O)O)C(C)C)cc2Br)cc(Cl)c1O | – | – | – | 31% | 21% | – | – |

| SMILES | EC50 (cells [2]) | EC50 (cells [4]) | IC50 [8] | IC50 [11] | Ratio IC50 (Homo sapiens) | ED15 (Rattus norvegicus [1]) | ED50 (Rattus norvegicus [3]) | Ratio (Rattus norvegicus [5]) | Activity (CHO-K1 [6]) | Activity (CHO-K1 [7]) | Ratio (Rattus norvegicus [9]) | ED30 (Rattus norvegicus [10]) |
| --- | --- | --- | --- | --- | --- | --- | --- | --- | --- | --- | --- | --- |
| CC(C)c1cc(Oc2c(Br)cc(CC(=O)N[C@@H](C(=O)O)c3ccccc3)cc2Br)ccc1O | 0.73 nM | 1.5 nM | 0.6 nM | 5.5 nM | 6 | – | – | – | 85% | 65% | – | – |
| CC(C)c1cc(Oc2c(Br)cc(CC(=O)N[C@H](C(=O)O)c3ccccc3)cc2Br)ccc1O | – | – | 0.78 nM | 7.5 nM | 5.7 | – | – | – | – | – | – | – |
